Experiment [1] has as its system ACHN. The experiment can be described thus: Cytotoxicity against human ACHN cells assessed as cell viability at 10 uM after 72 hrs by sulforhodamine B assay relative to control. As to conditions: read-out: Activity. Format: functional. On the technique in general: Sulforhodamine B stains cellular protein and so reports cell mass.
Experiment [2] in a line: Cytotoxicity against human HCT15 cells assessed as cell viability at 10 uM after 72 hrs by sulforhodamine B assay relative to control. Format: functional. As to conditions: HCT-15, 72 h, read-out: Activity.
Experiment [3] has as its system MDA-MB-231. The experiment can be described thus: Cytotoxicity against human MDA-MB-231 cells assessed as cell viability at 10 uM after 72 hrs by sulforhodamine B assay relative to control. As to conditions: MDA-MB-231, 72 h, read-out: Activity. Format: functional.
The subject of experiment [4] is NCI-H23. The experiment can be described thus: Cytotoxicity against human NCI-H23 cells assessed as cell viability at 10 uM after 72 hrs by sulforhodamine B assay relative to control. Format: functional. As to conditions: NCI-H23, 72 h, read-out: Activity.
Experiment [5] is described as follows: Cytotoxicity against human NUGC3 cells assessed as cell viability at 10 uM after 72 hrs by sulforhodamine B assay relative to control. As to conditions: NUGC-3, 72 h, read-out: Activity. It is filed as functional.
Experiment [6] is described as follows: Cytotoxicity against human PC3 cells assessed as cell viability at 10 uM after 72 hrs by sulforhodamine B assay relative to control. Format: functional. The conditions noted are these: PC-3, 72 h, read-out: Activity.
A short description of experiment [7]: Cytotoxicity against human PC3 cells assessed as growth inhibition after 72 hrs by sulforhodamine B assay. Format: functional. The conditions noted are these: PC-3, 72 h.
Experiment [8] addresses Nuclear factor NF-kappa-B complex (Homo sapiens) (UniProt Q00653+P19838+Q04206). The experiment can be described thus: Inhibition of NF-kappaB (unknown origin) transcriptional activity in LPS-induced mouse RAW264.7 cells at 30 uM after 1 hr by secreted alkaline phosphatase assay relative to control. Format: cell-based.
For experiment [9], the system named is ACHN. Put plainly: Cytotoxicity against human ACHN cells assessed as growth inhibition after 72 hrs by sulforhodamine B assay. Format: functional.
Experiment [10] in a line: Cytotoxicity against human HCT15 cells assessed as growth inhibition after 72 hrs by sulforhodamine B assay. It is filed as functional. As to conditions: HCT-15, 72 h.
Experiment [11] relates to MDA-MB-231. Put plainly: Cytotoxicity against human MDA-MB-231 cells assessed as growth inhibition after 72 hrs by sulforhodamine B assay. As to conditions: MDA-MB-231, 72 h. Format: functional.
The test system of experiment [12] is NCI-H23. Put plainly: Cytotoxicity against human NCI-H23 cells assessed as growth inhibition after 72 hrs by sulforhodamine B assay. Format: functional. The conditions noted are these: NCI-H23, 72 h.
The nature of experiment [13]: Cytotoxicity against human NUGC3 cells assessed as growth inhibition after 72 hrs by sulforhodamine B assay. As to conditions: NUGC-3, 72 h. It is filed as functional.
Experiment [14] addresses Nuclear factor NF-kappa-B complex (Homo sapiens, UniProt P19838+Q00653+Q04206). The experiment can be described thus: Inhibition of NF-kappaB (unknown origin) transcriptional activity in LPS-induced mouse RAW264.7 cells after 1 hr by secreted alkaline phosphatase assay. Format: cell-based.

For orientation: GI50 means the concentration giving 50% growth inhibition. A word on the inhibition: it is the drop in the measured response relative to a control, in per cent. The low end stands for little suppression, the high end for strong suppression. Broadly, the IC50 is the point on the concentration scale where inhibition reaches its midpoint. High values mean weaker potency, low ones greater potency.

Chain of Nuclear factor NF-kappa-B complex (P19838 1-433 limits assumed): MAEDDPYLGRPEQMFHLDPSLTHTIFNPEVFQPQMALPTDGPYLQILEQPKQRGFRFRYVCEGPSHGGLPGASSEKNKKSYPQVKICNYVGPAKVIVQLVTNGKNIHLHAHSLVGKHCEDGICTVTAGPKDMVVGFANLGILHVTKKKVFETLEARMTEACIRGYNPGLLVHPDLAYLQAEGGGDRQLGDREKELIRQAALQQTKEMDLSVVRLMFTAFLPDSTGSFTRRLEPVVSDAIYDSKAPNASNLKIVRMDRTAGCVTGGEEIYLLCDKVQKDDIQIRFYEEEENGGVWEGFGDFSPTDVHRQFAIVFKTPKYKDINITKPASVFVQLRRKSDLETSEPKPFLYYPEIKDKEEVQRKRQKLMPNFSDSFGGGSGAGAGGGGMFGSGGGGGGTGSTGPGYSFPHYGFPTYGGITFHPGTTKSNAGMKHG
Chain of Nuclear factor NF-kappa-B complex (Q00653 1-454 limits assumed): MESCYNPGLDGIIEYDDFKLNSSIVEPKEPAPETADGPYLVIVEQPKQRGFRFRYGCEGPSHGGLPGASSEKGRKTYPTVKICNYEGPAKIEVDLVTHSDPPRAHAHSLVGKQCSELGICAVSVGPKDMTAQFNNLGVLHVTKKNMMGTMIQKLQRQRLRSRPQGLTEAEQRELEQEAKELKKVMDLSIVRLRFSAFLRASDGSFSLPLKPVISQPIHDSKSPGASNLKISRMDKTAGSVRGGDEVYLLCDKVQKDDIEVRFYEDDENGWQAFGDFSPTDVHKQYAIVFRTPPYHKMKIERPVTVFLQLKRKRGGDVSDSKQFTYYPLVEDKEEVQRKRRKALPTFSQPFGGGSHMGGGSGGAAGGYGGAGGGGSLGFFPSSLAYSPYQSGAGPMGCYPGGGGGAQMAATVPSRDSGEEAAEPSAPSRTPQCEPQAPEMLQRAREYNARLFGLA
Chain of Nuclear factor NF-kappa-B complex (Q04206 whole entry): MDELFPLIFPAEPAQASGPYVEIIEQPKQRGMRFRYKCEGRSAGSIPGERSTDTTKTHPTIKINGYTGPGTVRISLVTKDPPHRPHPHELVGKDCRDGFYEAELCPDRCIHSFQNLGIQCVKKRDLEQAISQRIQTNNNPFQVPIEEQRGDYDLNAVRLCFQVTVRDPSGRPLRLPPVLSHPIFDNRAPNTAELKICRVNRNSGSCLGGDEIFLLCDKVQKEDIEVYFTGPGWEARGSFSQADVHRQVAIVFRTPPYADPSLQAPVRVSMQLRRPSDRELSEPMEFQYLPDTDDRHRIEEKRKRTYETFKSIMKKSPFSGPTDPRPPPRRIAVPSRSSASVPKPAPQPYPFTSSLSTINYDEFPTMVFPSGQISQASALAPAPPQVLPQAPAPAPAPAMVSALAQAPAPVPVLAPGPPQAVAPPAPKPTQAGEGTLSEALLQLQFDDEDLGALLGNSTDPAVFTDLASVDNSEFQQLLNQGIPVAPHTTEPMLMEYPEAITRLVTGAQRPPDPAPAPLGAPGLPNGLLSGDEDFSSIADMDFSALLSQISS
Chain of Nuclear factor NF-kappa-B complex (Homo sapiens) (P19838 whole entry, looked up): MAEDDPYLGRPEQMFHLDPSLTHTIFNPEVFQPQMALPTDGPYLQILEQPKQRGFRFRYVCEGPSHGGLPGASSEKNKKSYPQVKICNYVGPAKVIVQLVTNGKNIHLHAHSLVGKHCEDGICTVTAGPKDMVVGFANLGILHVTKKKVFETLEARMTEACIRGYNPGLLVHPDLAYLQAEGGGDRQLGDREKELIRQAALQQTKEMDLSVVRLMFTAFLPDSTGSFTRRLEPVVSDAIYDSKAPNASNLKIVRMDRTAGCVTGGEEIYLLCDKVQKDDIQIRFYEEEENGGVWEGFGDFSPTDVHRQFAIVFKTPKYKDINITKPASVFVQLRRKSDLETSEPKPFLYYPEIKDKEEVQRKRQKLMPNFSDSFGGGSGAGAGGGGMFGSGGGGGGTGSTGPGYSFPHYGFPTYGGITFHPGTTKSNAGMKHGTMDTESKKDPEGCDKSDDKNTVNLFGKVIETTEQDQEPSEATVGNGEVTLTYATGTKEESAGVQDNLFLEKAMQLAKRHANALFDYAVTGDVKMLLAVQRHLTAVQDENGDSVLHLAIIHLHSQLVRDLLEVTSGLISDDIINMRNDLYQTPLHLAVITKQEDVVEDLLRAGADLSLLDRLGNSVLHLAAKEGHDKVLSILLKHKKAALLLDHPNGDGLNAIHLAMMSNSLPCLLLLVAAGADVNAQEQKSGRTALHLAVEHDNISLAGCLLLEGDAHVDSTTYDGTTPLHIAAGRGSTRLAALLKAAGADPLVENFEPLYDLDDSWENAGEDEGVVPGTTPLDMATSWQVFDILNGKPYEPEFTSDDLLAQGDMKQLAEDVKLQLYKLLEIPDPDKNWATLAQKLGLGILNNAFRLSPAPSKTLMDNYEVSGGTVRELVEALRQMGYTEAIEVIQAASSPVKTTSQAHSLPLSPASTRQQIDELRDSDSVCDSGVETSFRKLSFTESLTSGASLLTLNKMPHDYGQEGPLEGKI
Chain of Nuclear factor NF-kappa-B complex (Homo sapiens) (Q00653 whole entry, looked up): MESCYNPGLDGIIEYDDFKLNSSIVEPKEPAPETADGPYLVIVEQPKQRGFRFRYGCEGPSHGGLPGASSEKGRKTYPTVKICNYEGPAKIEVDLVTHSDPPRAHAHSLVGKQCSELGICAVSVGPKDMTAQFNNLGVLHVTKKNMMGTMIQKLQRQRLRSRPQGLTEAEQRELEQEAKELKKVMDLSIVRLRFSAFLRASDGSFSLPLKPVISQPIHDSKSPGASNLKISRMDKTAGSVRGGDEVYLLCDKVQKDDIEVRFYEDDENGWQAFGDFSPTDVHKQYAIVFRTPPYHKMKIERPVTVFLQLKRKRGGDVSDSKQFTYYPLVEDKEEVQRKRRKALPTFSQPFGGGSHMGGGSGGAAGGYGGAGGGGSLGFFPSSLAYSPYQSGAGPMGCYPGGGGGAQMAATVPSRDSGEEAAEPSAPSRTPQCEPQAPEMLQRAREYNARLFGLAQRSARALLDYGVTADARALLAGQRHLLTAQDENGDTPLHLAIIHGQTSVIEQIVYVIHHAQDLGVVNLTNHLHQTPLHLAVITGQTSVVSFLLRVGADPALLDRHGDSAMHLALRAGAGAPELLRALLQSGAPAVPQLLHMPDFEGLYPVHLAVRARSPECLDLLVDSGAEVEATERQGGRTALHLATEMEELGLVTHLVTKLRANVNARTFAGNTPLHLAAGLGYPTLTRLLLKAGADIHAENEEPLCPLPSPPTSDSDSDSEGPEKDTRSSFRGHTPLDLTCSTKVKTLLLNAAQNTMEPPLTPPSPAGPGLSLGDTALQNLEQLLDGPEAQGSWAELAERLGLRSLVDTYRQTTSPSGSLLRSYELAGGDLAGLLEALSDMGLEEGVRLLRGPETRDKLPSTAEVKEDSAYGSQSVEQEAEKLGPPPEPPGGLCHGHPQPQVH
Chain of Nuclear factor NF-kappa-B complex (Homo sapiens) (Q04206 whole entry, looked up): as the sequence (Q04206 whole entry) above

On to `O=C(Nc1ccc([N+](=O)[O-])cc1)C1Cc2ccccc2O1` (stereo unspecified), for which the viability at 10 µM in the experiment with ACHN [1] came out at 93%; in experiment [2], 81%; in the experiment with MDA-MB-231 [3], 85%; with NCI-H23 [4], 77%; in experiment [5], 86%; in [6], 10%. Moreover, in experiment [7], the GI50 amounted to 1860 nM. For the same molecule, the inhibition in [8] came out at 34%.
Turning to `O=C(Nc1ccc(O)cc1)c1cc2ccccc2o1`, the viability at 10 µM was 10% with ACHN [1]; 18% in experiment [2]; -32% with MDA-MB-231 [3]; 25% in the experiment with NCI-H23 [4]; 47% in [5]; -31% in [6]. Also, the GI50 in the experiment with ACHN [9] is 2740 nM; in [10] it was 2370 nM; in the experiment on MDA-MB-231 [11] it was 2200 nM; in the experiment on NCI-H23 [12], 2480 nM; in experiment [13], 5860 nM; in [7] it was 2680 nM. In addition, in [8], the inhibition is 62%.
`O=C(Nc1cc(C(F)(F)F)cc(C(F)(F)F)c1)c1cc2ccccc2o1`: the viability at 10 µM in the experiment with ACHN [1] was 95%; in experiment [2] it was 98%; in the experiment with MDA-MB-231 [3], 98%; in the experiment with NCI-H23 [4] it was 101%; in experiment [5], 98%; in experiment [6], 110%. The same molecule yielded an inhibition in [8] of 51.5%. Half-maximal inhibition in [14] (IC50) was put at 34 µM.
On to `S=C(S)N1CCCC1` [PYRROLIDINE DITHIOCARBAMATE], for which the 50% growth inhibitory concentration (GI50) in the experiment with ACHN [9] is 230 nM; in [10] it was 130 nM; in the experiment with MDA-MB-231 [11], 160 nM; with NCI-H23 [12] it was 100 nM; in [13] it was 140 nM; in experiment [7], 170 nM. In experiment [14], this molecule registered an IC50 of 34.5 µM.
`COc1cc2c(cc1O)CCC(C(=O)Nc1ccccc1)O2` (stereo unspecified): the viability at 10 µM with ACHN [1] worked out at 109%; in [2], 105%; with MDA-MB-231 [3], 81%; in the experiment on NCI-H23 [4], 86%; in experiment [5], 99%; in experiment [6], 90%. Besides, the half-maximal inhibitory concentration (IC50) in [14] amounted to 37.2 µM.
Turning to `O=C(Nc1cccc(O)c1)C1Cc2ccccc2O1` (stereo unspecified), the viability at 10 µM stood at 125% in the experiment with ACHN [1]; 97% in experiment [2]; 63% in the experiment with MDA-MB-231 [3]; 60% in the experiment with NCI-H23 [4]; 110% in experiment [5]; 4% in experiment [6]. Also, in [7], the concentration for 50% growth inhibition (GI50) was 3970 nM. Also, the inhibition in experiment [8] came to 17%.
Take `O=C(Nc1ccc(Cl)c(Cl)c1)C1Cc2ccccc2O1` (stereo unspecified): the viability at 10 µM in the experiment on ACHN [1] was found to be 109%; in experiment [2] it was 88%; with MDA-MB-231 [3], 98%; in the experiment on NCI-H23 [4] it was 94%; in [5], 107%; in [6], 99%. Also, in [8], the inhibition amounted to 65%. This molecule displayed a half-inhibitory concentration (IC50) in experiment [14] of 23 µM.
For `COc1cccc2c1C(=O)c1c(O)c3c(c(O)c1C2=O)C[C@@](O)(C(=O)CO)C[C@@H]3O[C@H]1C[C@H](N)[C@H](O)[C@H](C)O1` [DOXORUBICIN], the GI50 was determined as 200 nM with ACHN [9]; 450 nM in [10]; 560 nM with MDA-MB-231 [11]; 400 nM in the experiment on NCI-H23 [12]; 190 nM in experiment [13]; 910 nM in [7].
For the molecule `O=C(Nc1cccc(C(F)(F)F)c1)c1cc2ccccc2o1`, the viability at 10 µM in the experiment on ACHN [1] amounted to 83%; in experiment [2], 75%; with MDA-MB-231 [3], 105%; in the experiment with NCI-H23 [4], 92%; in experiment [5] it was 79%; in experiment [6] it was 96%. Also, the inhibition in experiment [8] is 47.5%.
For `COc1ccccc1NC(=O)C1Cc2ccccc2O1` (stereo unspecified), the viability at 10 µM in the experiment on ACHN [1] turned out to be 134%; in [2], 100%; in the experiment with MDA-MB-231 [3] it was 89%; in the experiment with NCI-H23 [4] it was 111%; in experiment [5], 111%; in [6] it was 88%. In addition, in experiment [8], the inhibition is 29%.
On to `O=C(Nc1ccc(O)cc1)C1Cc2ccccc2O1` (stereo unspecified), for which the viability at 10 µM in the experiment on ACHN [1] was found to be 122%; in experiment [2] it was 88%; in the experiment with MDA-MB-231 [3] it was 91%; in the experiment with NCI-H23 [4], 106%; in experiment [5], 102%; in experiment [6] it was 98%. For the same molecule, the inhibition in experiment [8] was found to be 18.5%.

Values taken from ChEMBL document CHEMBL3425509, “Design, synthesis, and biological evaluation of benzofuran- and 2,3-dihydrobenzofuran-2-carboxylic acid N-(substituted)phenylamide derivatives as anticancer agents and inhibitors of NF-κB” (Bioorg Med Chem Lett, 2015).
